These results are taken from publication PMC10823399 (Journal of medicinal chemistry, 2015).

Broadly, the pKi is the Ki on a negative log10 scale, so that one unit is a factor of ten.

pKi: −log10 of the molar value.

Assay [1] deals with T1, D2LR (Homo sapiens, UniProt P14416). The assay can be described thus: ERK1/2 phosphorylation assay, interaction with dopamine. The class given is cell-based. The note with it: for Kb: operational model of allosterism (Equation 5); for activity at the D2R in words: effect on dopamine concentration-response, highest concentration 300 μM.
T1 sequence (P14416 whole entry): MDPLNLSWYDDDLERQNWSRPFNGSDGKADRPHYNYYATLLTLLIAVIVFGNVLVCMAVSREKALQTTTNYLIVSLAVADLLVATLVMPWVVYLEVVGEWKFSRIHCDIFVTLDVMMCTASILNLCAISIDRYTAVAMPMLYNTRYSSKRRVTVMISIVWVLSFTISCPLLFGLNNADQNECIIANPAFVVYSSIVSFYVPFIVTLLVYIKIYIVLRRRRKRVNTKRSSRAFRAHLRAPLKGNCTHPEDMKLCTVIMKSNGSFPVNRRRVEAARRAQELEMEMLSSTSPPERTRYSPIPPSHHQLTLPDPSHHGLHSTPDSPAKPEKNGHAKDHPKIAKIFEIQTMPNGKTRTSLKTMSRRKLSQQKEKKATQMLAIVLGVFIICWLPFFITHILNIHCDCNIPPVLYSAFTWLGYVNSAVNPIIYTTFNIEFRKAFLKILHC
Assay [2] concerns the target T2, D2R (Homo sapiens, UniProt P14416). Put plainly: [35S]GTPγS binding assay, interaction with dopamine. The note with it: composite cooperativity with dopamine. The class given is biochemical.
Assay [3] concerns the target T2, D2R. Put plainly: [3H]spiperone binding assay.
The target in assay [4] is T1, D2LR. The assay can be described thus: BRET cAMP assay. In kind it is cell-based. On the technique in general: In BRET a luciferase serves as donor, and the signal depends on an acceptor being close.
For assay [5], the target named is Glu95^2.65Ala D2R (Homo sapiens, UniProt P14416, E95A). Put plainly: ERK1/2 phosphorylation assay at mutant D2R. In kind it is cell-based.
Chain of Glu95^2.65Ala D2R (P14416 whole entry E95A): as the sequence (P14416 whole entry) above, with E95A counted along it
The target in assay [6] is Val91^2.61Ala D2R (Homo sapiens, UniProt P14416, V91A). The assay can be described thus: ERK1/2 phosphorylation assay at mutant D2R. In kind it is cell-based.
Chain of Val91^2.61Ala D2R (P14416 whole entry V91A): as the sequence (P14416 whole entry) above, with V91A counted along it
Assay [7] addresses T2, D2R. The assay can be described thus: Interaction of bitopic ligand 36 with dopamine at the D2R.
Where [8] appears, read: WT D2R, binding cooperativity with dopamine.
Setting [9] is: Table 3, binding cooperativity with dopamine.
The mark [10] stands for this setting: Table 4, binding cooperativity with dopamine.

T2 sequence (P14416 whole entry): as the sequence (P14416 whole entry) above

In turn, `CN(C)CC[C@H]1CC[C@H](NC(=O)c2cc3ccccc3[nH]2)CC1.Cl` [Compound 9a, N-((trans)-4-(2-(Dimethylamino)ethyl)cyclohexyl)-1H-indole-2-carboxamide hydrochloride] gave a Kb in assay [1] (KB, WT D2R) of 3000 nM. Besides, in assay [1] (setting [8]), the Logα is −0.61 ± 0.14 and the α was found to be 0.25. Also, the Logβ in assay [1] (WT D2R, modulation of dopamine efficacy, fixed to −100 in the fit) is −100. Also, the Kb in assay [1] (pKB, WT D2R) is 2880 nM. In assay [2], the Logαβ is listed as −0.84 ± 0.15. This compound registered a αβ in assay [2] (<1 negative) of 0.14.
As for `CCCN(CCC)CC[C@H]1CC[C@H](NC(=O)c2cc3ccccc3[nH]2)CC1` [Compound 9b, N-((trans)-4-(2-(Dipropylamino)ethyl)cyclohexyl)-1H-indole-2-carboxamide], the “mode of action in words” value is given as “partial agonist” in assay [1] (pERK1/2 assay) and “competitive partial agonist” in assay [4]. In assay [3], this compound had a pKi of 4.70.
For the compound `NC(=O)c1cc2ccccc2[nH]1` [Compound 11a, 1H-Indole-2-carboxamide], the “activity at the D2R in words” value in assay [1] is “does not exhibit receptor binding”.
The compound `CCNC(=O)c1cc2ccccc2[nH]1` [Compound 11b, N-Ethyl-1H-indole-2-carboxamide] showed a Logα in assay [1] (setting [9]) of −0.35 ± 0.21.
In assay [1] (setting [9]), `CCCNC(=O)c1cc2ccccc2[nH]1` [Compound 11c, N-Propyl-1H-indole-2-carboxamide] came in with a Logα of −0.60 ± 0.09.
On to `CCCCNC(=O)c1cc2ccccc2[nH]1` [Compound 11d, N-Butyl-1H-indole-2-carboxamide], for which the “increase in affinity compared to 3” value in assay [1] is recorded as 7 fold. In assay [1], the “increase in negative cooperativity compared to 3” value worked out at 10 fold. Further, the Logα in assay [1] (setting [9]) is given as −1.63 ± 0.11; in assay [1] (Table 5, Wild Type), −1.63 ± 0.11; in assay [5] (Table 5, Glu95^2.65Ala), −1.24 ± 0.17. Moreover, the α in assay [1] (Table 5, Wild Type) was 0.02; in assay [5] (Table 5, Glu95^2.65Ala) it was 0.05. Moreover, the Logβ in assay [1] (Table 5, Wild Type, constrained) is −100; in assay [5] (Table 5, Glu95^2.65Ala, no modulation of dopamine efficacy), 0. In assay [6] (Val91^2.61Ala vs WT), the “decrease in affinity caused by mutation” value stood at 14 fold.
Compound `C=CCNC(=O)c1cc2ccccc2[nH]1` [Compound 11e, N-Allyl-1H-indole-2-carboxamide] returned a Logα in assay [1] (setting [9]) of −0.26 ±0.06.
As for `O=C(NCCO)c1cc2ccccc2[nH]1` [Compound 11f, N-(2-Hydroxyethyl)-1H-indole-2-carboxamide], in assay [1], the “activity at the D2R in words” value is recorded as “inactivity”.
On to `CC(C)(C)NC(=O)c1cc2ccccc2[nH]1` [Compound 11h, N-(tert-Butyl)-1H-indole-2-carboxamide], for which the Logα in assay [1] (setting [9]) is recorded as −0.58 ± 0.13.
`CC(C)N(C(=O)c1cc2ccccc2[nH]1)C(C)C` [Compound 11j, N,N-Diisopropyl-1H-indole-2-carboxamide] had a Logα in assay [1] (setting [9]) of −1.39 ± 0.11.
In assay [1] (setting [9]), `O=C(NC1CCC1)c1cc2ccccc2[nH]1` [Compound 11p, N-Cyclobutyl-1H-indole-2-carboxamide] showed a Logα of −1.77 ± 0.27.
In the case of `O=C(NC1CCCC1)c1cc2ccccc2[nH]1` [Compound 11q, N-Cyclopentyl-1H-indole-2-carboxamide], in assay [1] (setting [9]), the Logα was −0.63 ± 0.11.
Turning to `O=C(NC1CCCCC1)c1cc2ccccc2[nH]1` [Compound 11r, N-Cyclohexyl-1H-indole-2-carboxamide], in assay [1], the “activity at the D2R in words” value is reported as “no determinable activity”.
For the compound `O=C(NN1CCCCC1)c1cc2ccccc2[nH]1` [Compound 11s, N-(Piperidin-1-yl)-1H-indole-2-carboxamide], in assay [1] (setting [9]), the Logα was −0.53 ± 0.13.
As to `CC(C)NC(=O)c1[nH]c2ccccc2c1F` [Compound 13a, 3-Fluoro-N-isopropyl-1H-indole-2-carboxamide], in assay [1] (setting [9]), the Logα is given as −0.72 ± 0.35 and the α is given as 0.19.
Turning to `CC(C)NC(=O)c1cc2c(F)cccc2[nH]1` [Compound 13b, 4-Fluoro-N-isopropyl-1H-indole-2-carboxamide], the Logα in assay [1] (setting [9]) was −1.14 ± 0.10.
In the case of `CC(C)NC(=O)c1cc2cccc(F)c2[nH]1` [Compound 13e, 7-Fluoro-N-isopropyl-1H-indole-2-carboxamide], in assay [1] (setting [9]), the Logα is recorded as −0.96 ± 0.12.
Turning to `CC(C)NC(=O)c1cc2ccccc2n1C` [Compound 17, N-Isopropyl-1-methyl-1H-indole-2-carboxamide], in assay [1], the “activity at the D2R in words” value was “did not show activity”.
As for `CC(C)NC(=O)c1nc2ccccc2[nH]1` [Compound 19, N-Isopropyl-1H-benzo[d]imidazole-2-carboxamide], the Logα in assay [1] (setting [10]) is −1.07 ± 0.22.
On to `CC(C)NC(=O)c1nc2ccccc2o1` [Compound 21, N-Isopropylbenzo[d]oxazole-2-carboxamide], for which, in assay [1], the “activity at the D2R in words” value is on record as “did not show activity”.
As for `CC(C)NC(=O)c1csc2ccccc12` [Compound 25b, N-Isopropylbenzo[b]thiophene-3-carboxamide], the “activity at the D2R in words” value in assay [1] is “did not show activity”.
As to `CC(C)NC(=O)c1cc2cccnc2[nH]1` [Compound 27, N-Isopropyl-1H-pyrrolo[2,3-b]pyridine-2-carboxamide], the “activity at the D2R in words” value in assay [1] was “lack of activity”.
For the compound `CC(C)NC(=O)c1cccc2[nH]ccc12` [Compound 30a, N-Isopropyl-1H-indole-4-carboxamide], the “activity at the D2R in words” value in assay [1] is “devoid of detectable activity”.
Regarding `CC(C)NC(=O)c1ccc2[nH]ccc2c1` [Compound 30b, N-Isopropyl-1H-indole-5-carboxamide], the Logα in assay [1] (setting [10]) is given as −1.27 ± 0.3.
Take `CC(C)NC(=O)c1ccc2cc[nH]c2c1` [Compound 30c, N-Isopropyl-1H-indole-6-carboxamide]: in assay [1] (setting [10]), the Logα is given as −1.1 ± 0.3.
Take `CC(C)NC(=O)c1cccc2cc[nH]c12` [Compound 30d, N-Isopropyl-1H-indole-7-carboxamide]: the “activity at the D2R in words” value in assay [1] is listed as “devoid of detectable activity”.
For the compound `N#Cc1ccc2c(c1)CN(CCCCNC(=O)c1cc3ccccc3[nH]1)CC2` [Compound 36, N-(4-(7-Cyano-3,4-dihydroisoquinolin-2(1H)-yl)butyl)-1H-indole-2-carboxamide], in assay [7], the Kb was 81.3 nM and the “increase in affinity as compared to 1” value is given as 10 fold. This compound came in with a Logαβ in assay [7] (Figure 7, negative cooperativity with dopamine) of −1.32 ± 0.09.
As for `NCCc1ccc(O)c(O)c1` [dopamine, reference compound], the LogτA in assay [1] (WT D2R expressing cell line) is given as 0.74 ± 0.07; in assay [5] (E95A D2R expressing cell line), 0.71 ± 0.24; in assay [6] (V91A D2R expressing cell line) it was 0.65 ± 0.19.
